Data reported in patent US20210207064A1, “COMPOUND FOR RESTORING CONTAMINATED SOIL OR CONTAMINATED WATER” (FNG RESEARCH CO., LTD., priority 2018, published 2021).

What was measured:
[1] = Heavy metal removal ability test in contaminated soil (ICP-MS), cadmium; conditions: for Cadmium (Cd) Adsorption amount: contaminated soil; for Cadmium (Cd) Adsorption rate: relative to EDTA control
Procedure: (§1) (1) Preparation of Soil Contaminated with Heavy Metal
(§2) After collecting and pulverizing uncontaminated soil, fine particles obtained by using a mesh were mixed with the aqueous heavy metal solution to prepare soil samples contaminated with heavy metals.
(§3) Each 3 ml of the prepared aqueous solution was added to a soil sample contaminated with heavy metals and mixed for 5 minutes.
(§4) 50 ml of distilled water was added to the contaminated soil mixed with the aqueous solution for restoring soil, stirred for 20 minutes, and settled for 1 hour, and a supernatant was prepared as a sample solution.
(§5) The prepared sample solution was analyzed for the heavy metal component using an Inductively Coupled Plasma Mass Spectrometer (ICP-MS) (Xseries™ 2, Thermo Fisher Scientific, UK).
(§6) Adsorption rate of heavy metals (%)=(Adsorption amount of Embodiment/Adsorption amount of Control)×100 Equation 1

[2] = Heavy metal removal ability test in contaminated soil (ICP-MS), arsenic; conditions: for Arsenic (As) Adsorption amount: contaminated soil; for Arsenic (As) Adsorption rate: relative to EDTA control
Procedure: as §1, §2, §3, §4, §5, §6

[3] = Heavy metal removal ability test in contaminated soil around a factory (WAK-Me test kit); conditions: 1.0 wt % aqueous solution, colour comparison test kit
Procedure: The contaminated soil around the factory in the industrial complex was collected, pulverized, and meshed to prepare fine particles of soil samples.
Each 3 ml of aqueous solutions for restoring soil was added to soil samples and mixed for 5 minutes.

[4] = Heavy metal removal ability test in contaminated soil (ICP-MS), nickel; conditions: for Nickel (Ni) Adsorption amount: contaminated soil; for Nickel (Ni) Adsorption rate: relative to EDTA control
Procedure: as §1, §2, §3, §4, §5, §6

human skin = experiment: Skin irritation test of active ingredient (patch method, CTFA guidelines); format: in vivo; conditions: 24 h patch; for Test result (number of subject) (+) / Test result (number of subject) (++) / Test result (number of subject) (±) / Test result (number of subject) (−): 20 people; for Test result (number of subject) (+): (+) apparent reddening; for Test result (number of subject) (++): (++) more reddened and swollen; for Test result (number of subject) (±): (±) slightly reddish; for Test result (number of subject) (−): (−) no erythema
Procedure: A filter paper disk was placed in an 8 mm diameter, 10 panels of pin chamber.
After 24 hours, the pin chamber was removed, and skin conditions were visually observed. The degree and grade for skin irritation were calculated according to the following Equation 2, and the results are shown in Table 4 below.
[Criteria for Skin Irritation]
(−): No erythema or particularly no symptoms; (±): slightly reddish than the periphery; (+): Apparent reddening than periphery; (++): More reddened and swollen than periphery.
[Grade for Skin Irritation]
Degree of irritation 0-0.1: Grade I (unstimulated);
Degree of irritation 0.11-0.3: Grade II (weakly stimulated);
Degree of irritation 0.31-0.5: Grade III (moderately stimulated);
Degree of irritation 0.51 or more: Grade IV (strongly stimulated)

[5] = Formaldehyde (formalin) removing ability test (GC); conditions: 2.0% formaldehyde solution, 3 molar equivalents of compound, room temperature; for Formaldehyde GC Area, 30 min: after 30 min; for Formaldehyde GC Area, 180 min: after 180 min; for Formaldehyde GC Area, Initial: initial state

SMILES	Cadmium (Cd) Adsorption amount ([1]; content 0.5% aqueous solution)	Arsenic (As) Adsorption amount ([2]; content 0.5% aqueous solution)	Total amount (Cu, Zn, Mn, Ni, Cd) [3]	Nickel (Ni) Adsorption amount ([4]; content 0.5% aqueous solution)	Cadmium (Cd) Adsorption rate ([1]; content 0.5%)	Cadmium (Cd) Adsorption amount ([1]; content 1.0% aqueous solution)	Cadmium (Cd) Adsorption rate ([1]; content 1.0%)	Cadmium (Cd) Adsorption amount ([1]; content 2.0% aqueous solution)	Cadmium (Cd) Adsorption rate ([1]; content 2.0%)	Test result (number of subject) (+) (human skin; content 0.1 wt %)	Test result (number of subject) (++) (human skin; content 0.1 wt %)	Test result (number of subject) (±) (human skin; content 0.1 wt %)	Test result (number of subject) (−) (human skin; content 0.1 wt %)	Degree of irritation (human skin; content 0.1 wt %)	Grade for skin irritation (human skin; content 0.1 wt %)	Test result (number of subject) (+) (human skin; content 0.5 wt %)	Test result (number of subject) (++) (human skin; content 0.5 wt %)	Test result (number of subject) (±) (human skin; content 0.5 wt %)	Test result (number of subject) (−) (human skin; content 0.5 wt %)	Degree of irritation (human skin; content 0.5 wt %)	also measured
O=C(O)CN(CCN(CC(=O)O)CC(=O)O)CC(=O)O [Control (EDTA), ethylenediaminetetraacetic acid, reference compound]	41 ppm	25 ppm	2.0 ppm	49 ppm	–	–	–	–	–	–	–	–	–	–	–	–	–	–	–	–	–
C1CNCCNCCNCCN1 [Cyclen, 1,4,7,10-tetraazacyclododecane]	69 ppm	42 ppm	≤5 ppm	91 ppm	168%	74 ppm	180%	81 ppm	198%	0	0	0	20	0	I (Degree of irritation 0-0.1: Grade I (unstimulated))	0	0	0	20	0	Grade for skin irritation (human skin; content 0.5 wt %): I (Degree of irritation 0-0.1: Grade I (unstimulated)); Test result (number of subject) (+) (human skin; content 1.0 wt %): 1; Test result (number of subject) (++) (human skin; content 1.0 wt %): 0; Test result (number of subject) (±) (human skin; content 1.0 wt %): 1; Test result (number of subject) (−) (human skin; content 1.0 wt %): 18; Degree of irritation (human skin; content 1.0 wt %): 0.15; Grade for skin irritation (human skin; content 1.0 wt %): II (Degree of irritation 0.11-0.3: Grade II (weakly stimulated)); Arsenic (As) Adsorption rate ([2]; content 0.5%): 168%; Arsenic (As) Adsorption amount ([2]; content 1.0% aqueous solution): 49 ppm; Arsenic (As) Adsorption rate ([2]; content 1.0%): 196%; Arsenic (As) Adsorption amount ([2]; content 2.0% aqueous solution): 51 ppm; Arsenic (As) Adsorption rate ([2]; content 2.0%): 204%; Formaldehyde GC Area, 30 min [5]: 0.181 mAU*min; Formaldehyde GC Area, 180 min [5]: 0 mAU*min; Formaldehyde GC Area, Initial [5]: 0.305 mAU*min; Nickel (Ni) Adsorption rate ([4]; content 0.5%): 186%; Nickel (Ni) Adsorption amount ([4]; content 1.0% aqueous solution): 93 ppm; Nickel (Ni) Adsorption rate ([4]; content 1.0%): 190%; Nickel (Ni) Adsorption amount ([4]; content 2.0% aqueous solution): 98 ppm; Nickel (Ni) Adsorption rate ([4]; content 2.0%): 200%
O=C(O)CN(CCN(CCN(CC(=O)O)CC(=O)O)CC(=O)O)CCN(CC(=O)O)CC(=O)O [Embodiment 1, 3,6,9,12-tetrakis(carboxymethyl)-3,6,9,12-tetraazatetradecanedioic Acid]	74 ppm	48 ppm	≤5 ppm	91 ppm	180%	79 ppm	193%	84 ppm	205%	0	0	0	20	0	I (Degree of irritation 0-0.1: Grade I (unstimulated))	0	0	1	19	0.05	Grade for skin irritation (human skin; content 0.5 wt %): I (Degree of irritation 0-0.1: Grade I (unstimulated)); Test result (number of subject) (+) (human skin; content 1.0 wt %): 0; Test result (number of subject) (++) (human skin; content 1.0 wt %): 0; Test result (number of subject) (±) (human skin; content 1.0 wt %): 4; Test result (number of subject) (−) (human skin; content 1.0 wt %): 16; Degree of irritation (human skin; content 1.0 wt %): 0.20; Grade for skin irritation (human skin; content 1.0 wt %): II (Degree of irritation 0.11-0.3: Grade II (weakly stimulated)); Arsenic (As) Adsorption rate ([2]; content 0.5%): 192%; Arsenic (As) Adsorption amount ([2]; content 1.0% aqueous solution): 50 ppm; Arsenic (As) Adsorption rate ([2]; content 1.0%): 200%; Arsenic (As) Adsorption amount ([2]; content 2.0% aqueous solution): 53 ppm; Arsenic (As) Adsorption rate ([2]; content 2.0%): 212%; Formaldehyde GC Area, 30 min [5]: 0.170 mAU*min; Formaldehyde GC Area, 180 min [5]: 0 mAU*min; Formaldehyde GC Area, Initial [5]: 0.305 mAU*min; Nickel (Ni) Adsorption rate ([4]; content 0.5%): 186%; Nickel (Ni) Adsorption amount ([4]; content 1.0% aqueous solution): 101 ppm; Nickel (Ni) Adsorption rate ([4]; content 1.0%): 206%; Nickel (Ni) Adsorption amount ([4]; content 2.0% aqueous solution): 112 ppm; Nickel (Ni) Adsorption rate ([4]; content 2.0%): 229%
O=C(O)c1ccc(N(CCN(CCN(c2ccc(C(=O)O)cc2)c2ccc(C(=O)O)cc2)c2ccc(C(=O)O)cc2)CCN(c2ccc(C(=O)O)cc2)c2ccc(C(=O)O)cc2)cc1 [Embodiment 2, 4,4′,4″,4′″-(((ethane-1,2-diylbis((4-carboxyphenyl)azanediyl))bis(ethane-2,1-diyl))bis(azanetriyl))tetrabenzoic Acid]	75 ppm	48 ppm	≤5 ppm	94 ppm	183%	86 ppm	210%	88 ppm	215%	0	0	0	20	0	I (Degree of irritation 0-0.1: Grade I (unstimulated))	0	0	0	20	0	Grade for skin irritation (human skin; content 0.5 wt %): I (Degree of irritation 0-0.1: Grade I (unstimulated)); Test result (number of subject) (+) (human skin; content 1.0 wt %): 0; Test result (number of subject) (++) (human skin; content 1.0 wt %): 0; Test result (number of subject) (±) (human skin; content 1.0 wt %): 1; Test result (number of subject) (−) (human skin; content 1.0 wt %): 19; Degree of irritation (human skin; content 1.0 wt %): 0.05; Grade for skin irritation (human skin; content 1.0 wt %): I (Degree of irritation 0-0.1: Grade I (unstimulated)); Arsenic (As) Adsorption rate ([2]; content 0.5%): 192%; Arsenic (As) Adsorption amount ([2]; content 1.0% aqueous solution): 49 ppm; Arsenic (As) Adsorption rate ([2]; content 1.0%): 196%; Arsenic (As) Adsorption amount ([2]; content 2.0% aqueous solution): 53 ppm; Arsenic (As) Adsorption rate ([2]; content 2.0%): 212%; Formaldehyde GC Area, 30 min [5]: 0.168 mAU*min; Formaldehyde GC Area, 180 min [5]: 0 mAU*min; Formaldehyde GC Area, Initial [5]: 0.305 mAU*min; Nickel (Ni) Adsorption rate ([4]; content 0.5%): 192%; Nickel (Ni) Adsorption amount ([4]; content 1.0% aqueous solution): 96 ppm; Nickel (Ni) Adsorption rate ([4]; content 1.0%): 196%; Nickel (Ni) Adsorption amount ([4]; content 2.0% aqueous solution): 103 ppm; Nickel (Ni) Adsorption rate ([4]; content 2.0%): 210%
